Assay results published in patent publication US20220162558A1, “METHOD FOR INDUCING DIFFERENTIATION OF STEM CELLS INTO CHONDROCYTES BY USING OLIGOPEPTIDES” (POSTERA HEALTH SCIENCE Inc., priority 2019, published 2022).
“Also recorded” adds a separate entry of the source.

What was measured:
Format in all cases: cell-based
[1] = tested on: COL II in tonsil-derived mesenchymal stem cells; assay: Immunofluorescence assay of COL II protein in sectioned 3D pellets; settings: 3D pellet culture, compared with control system and WFE- or WLE-treated system
Description: Tonsil-derived mesenchymal stem cells (passage 6) were enzymatically detached by trypsin treatment and counted by a hemocytometer. The tube was centrifuged in 500-g relative centrifugal force (RCF) for 10 minutes and incubated at 37° C. under 5% carbon dioxide for 24 hours. A cell pellet consisting of about 3.0×10^5 cells was formed in a conical polypropylene tube (15 mL). The FBS-containing growth medium was replaced by medium A containing a high-glucose DMEM supplemented with 1.0% (v/v) antibiotic/antimitotic solution, 1.0% (v/v) penicillin/streptomycin solution, 50 μg/mL ascorbate-2-phosphate, 40 μg/mL L-proline, and 1% ITS+Premix (final concentration: 10 μg/mL bovine insulin, 5.5 μg/mL transferrin, 5 μg/mL sodium selenite, 4.7 μg/mL linoleic acid, and 0.5 mg/mL BSA), and 100 nM dexamethasone. Pellets were cultured at 37° C. under 5% carbon dioxide for 21 days under the following three different conditions: 1) medium A only, 2) medium A supplemented with kartogenin, or 3) medium A supplemented with each tripeptides. Each medium was replaced every three days. […]
The stem cell pellets were fixed in formalin aqueous solution (10% v/v) and embedded in paraffin. […] Then, the sectioned cell pellet samples were deparaffinized by xylene, and analyzed by immunofluorescence using antibody, alcian blue staining, and safranin O staining to visualize COL II, sGAG and proteoglycan, respectively. […]

[2] = tested on: tonsil-derived mesenchymal stem cells (TMSCs); assay: First-round screening: chondrogenic biomarker mRNA expression by real-time RT-PCR in 2D culture; settings: tripeptide 10 μM, serum-free medium, after 7 days of incubation
Description: The medium was replaced every three days.
(§1) Total RNA was extracted from the cells by using a TRIZOL™ reagent (Invitrogen, USA). The mRNA concentration was assayed by Nano Drop 2000 spectrophotometer (Thermo Scientific, USA). cDNA was synthesized by ReverTra Ace® qPCR RT kit (Toyobo, Japan). mRNA expression levels were analyzed by real-time RT-PCR (CFX96™, Bio-Rad, USA) using IQ™ SYBR® Green Supermix (Bio-Rad, USA). The expression levels of target genes were calculated as 2^−ΔΔCt by the following calculation equation, and the primer sequences are shown in Table 1 below.
(§2) ΔΔCt=(gene A−GAPDH)−(gene A−GAPDH)control

[3] = tested on: tonsil-derived mesenchymal stem cells (TMSCs); assay: 3D pellet culture: biomarker mRNA expression by real-time RT-PCR; settings: tripeptide 10 μM, 3D pellet culture in chondrogenic medium
Description: (§3) Tonsil-derived mesenchymal stem cells (passage 6) were enzymatically detached by trypsin treatment and counted by a hemocytometer. The tube was centrifuged in 500-g relative centrifugal force (RCF) for 10 minutes and incubated at 37° C. under 5% carbon dioxide for 24 hours. A cell pellet consisting of about 3.0×10^5 cells was formed in a conical polypropylene tube (15 mL). The FBS-containing growth medium was replaced by medium A containing a high-glucose DMEM supplemented with 1.0% (v/v) antibiotic/antimitotic solution, 1.0% (v/v) penicillin/streptomycin solution, 50 μg/mL ascorbate-2-phosphate, 40 μg/mL L-proline, and 1% ITS+Premix (final concentration: 10 μg/mL bovine insulin, 5.5 μg/mL transferrin, 5 μg/mL sodium selenite, 4.7 μg/mL linoleic acid, and 0.5 mg/mL BSA), and 100 nM dexamethasone. Pellets were cultured at 37° C. under 5% carbon dioxide for 21 days under the following three different conditions: 1) medium A only, 2) medium A supplemented with kartogenin, or 3) medium A supplemented with each tripeptides. Each medium was replaced every three days. Triplicate experiments were carried out for each system.
as §1, §2
The medium was supplemented with each tripeptide (10 μM), and tonsil-derived mesenchymal stem cells (size: ˜ mm) were prepared. Chondrogenic medium without tripeptide was used as control experiment. Medium supplemented with kartogenin (target molecule) instead of tripeptide was used for the purpose of comparing chondrogenic differentiation of tonsil-derived mesenchymal stem cells.

[4] = tested on: sGAG in tonsil-derived mesenchymal stem cells; assay: Alcian blue staining of sectioned 3D pellets; settings: 3D pellet cultured 21 days, sections of 7 μm
Description: as §3

[5] = tested on: proteoglycan in tonsil-derived mesenchymal stem cells; assay: Safranin O staining of sectioned 3D pellets; settings: 3D pellet cultured 21 days, sections of 7 μm
Description: as §3

Compound	COL II at protein level, red staining by immunofluorescence [1]	chondrogenic biomarker expression at mRNA level (COL II, SOX 9, COMP) [2]	chondrogenic mRNAs of COL II, COMP and ACAN, expression [3]	sGAG, alcian blue staining [4]	proteoglycan, safranin O staining [5]	expression levels of COL X and COL I α2 relative to control system ([3]; hypertrophy / osteogenic biomarkers)
O=C(O)c1ccccc1C(=O)Nc1ccc(-c2ccccc2)cc1 [kartogenin, reference compound]	distinguished for their red staining by COL II					
tryptophan-leucine-glutamic acid [WLE]		enhanced	highly expressed			
tryptophan-phenylalanine-glutamic acid [WFE]		enhanced	highly expressed			
tyrosine-tyrosine-glutamic acid [YYE]	distinguished for their red staining by COL II	enhanced; also recorded: good promoter comparable to kartogenin	highly expressed	upregulated	upregulated	less than half of the control system
